The values below come from patent US20240246941A1, “SUBSTITUTED 4-(3-AMINOPROP-1-YL)AMINOQUINOLINE ANALOGS AS MODULATORS OF MELANOMA-ASSOCIATED ANTIGEN 11 UBIQUITIN LIGASE” (ST. JUDE CHILDREN'S RESEARCH HOSPITAL, INC., priority 2020, published 2024).

Molecules are shown by their SMILES. Entries after “also recorded” stand apart in the source; their conditions may differ. Read-outs that look alike come from different tables or passages of the source.

In series [1] the target is MAGE-A11 binding to PCF11 in FLAG-MAGE-A11 HEK293FT cell lysates (Homo sapiens (Human), UniProt P43364). The series is described as follows: anti-FLAG pull-down (co-IP) of MAGE-A11:PCF11 in cell lysates. The settings on record: 100 μM, 24 hours, immunoblot for endogenous PCF11, listed as SJ521054. As to the method: Immunoprecipitation. HEK293FT cells were plated in 6 cm^2 plates and transfected 24 hours later with Effectene (QIAGEN) according to the manufacturer's protocol. After 48 hours, cells were washed and scraped in cold PBS, spun down and resuspended in lysis buffer (50 mM Tris pH 7.4, 150 mM NaCl, 1 mM DTT, 0.1% (v/v) Triton X-100, 10 mM N-Ethylmaleimide and 1× protease inhibitor cocktail (Sigma)). Cell lysates were incubated with appropriate antibodies overnight at 4° C. and then with protein A beads for 2 hours at 4° C. Beads were then washed with lysis buffer three times and eluted with 2×SDS sample buffer.
MAGE-A11 binding to PCF11 in FLAG-MAGE-A11 HEK293FT cell lysates, sequence (P43364 whole entry): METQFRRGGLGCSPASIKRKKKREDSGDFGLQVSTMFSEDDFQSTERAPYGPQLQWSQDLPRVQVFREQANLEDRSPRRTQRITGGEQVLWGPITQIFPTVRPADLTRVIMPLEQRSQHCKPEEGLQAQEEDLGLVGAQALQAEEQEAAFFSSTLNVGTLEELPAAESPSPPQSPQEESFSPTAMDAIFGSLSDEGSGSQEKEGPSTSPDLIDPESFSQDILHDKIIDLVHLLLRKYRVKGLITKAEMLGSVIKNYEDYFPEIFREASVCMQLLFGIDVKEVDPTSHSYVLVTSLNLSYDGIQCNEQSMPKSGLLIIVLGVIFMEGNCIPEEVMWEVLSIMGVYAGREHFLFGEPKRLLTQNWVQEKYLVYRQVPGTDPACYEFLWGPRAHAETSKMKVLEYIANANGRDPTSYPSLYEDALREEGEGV
(§1) Western Blotting and Antibodies. For western blotting, samples in SDS sample buffer were resolved on SDS-PAGE gels and then transferred to nitrocellulose membranes prior to blocking in TBST with 5% (w/v) milk powder or 3% (w/v) bovine serum albumin and probing with primary and secondary antibodies (GE Healthcare). Primary antibodies were: anti-Myc (Sigma, #C3956), anti-FLAG (Sigma, #F3165), anti-HUWE1 (Novus Biologicals, #NB 100-652), anti-PCF11 (Bethyl Laboratories, #A303-706A), anti-GAPDH (Cell Signaling Technology, #2118), anti-TRIM28 (Abcam, #ab22553), anti-AMPKa1 (Cell Signaling Technology, #2795) and anti-MMS19 (Proteintech, #16015-1-AP). Protein signal was visualized after addition of ECL detection reagent (GE Healthcare) according to manufacturer's instructions.
In general terms: In western blotting, separated proteins are transferred to a membrane and probed.

A short description of series [2]: High throughput Caco-2 permeability. The settings on record: human, 10 μmol/l, 2 h, 37° C. Type of series: in vitro ADME. As to the method:
High throughput Caco-2 permeability was performed in the TranswellR 0.4 μm polycarbonate membrane 96-well system with modified methods. Caco-2 cells were maintained at 37° C. in a humidified incubator with an atmosphere of 5% CO2. The cells were cultured in 75 cm^2 flasks with Dulbecco's Modified Eagle's Medium (DMEM) containing 10% (v/v) FBS, 1% (v/v) non-essential amino acids (NEAA), 100 units/ml of penicillin, and 100 μg/ml of streptomycin. The Caco-2 cells were seeded onto inserts at a density of 2×10^4 cells/insert separately. The medium in the wells was exchanged each other day, and the trans epithelial electrical resistance (TEER) value was measured using an epithelial voltohm meter (Millipore, Billerica, Massachusetts). […] For transport experiments, each cultured monolayer on the 96-well plate was washed twice with a transport buffer (HBSS containing 25 mM HEPES, pH 7.4). The permeability assay was initiated by the addition of each compound solution (10 μmol/l) into inserts (apical side, A) or receivers (basolateral side, B). The Caco-2 cell monolayers were incubated for 2 h at 37° C. Fractions were collected from receivers (if apical to basal permeability) or inserts (if basal to apical permeability), and concentrations were assessed by UPLC/MS (Waters; Milford, MA). All compounds were tested in triplicates. The A→B (or B→A) apparent permeability coefficients (Papp) of each compound were calculated using the equation, Papp=dQ/dt×1/AC0, where dQ/dt equals the flux of a drug across the monolayer, A equals the total insert well surface area, and C0 is the initial concentration of substrate in the donor compartment. The efflux ratio was determined by dividing the Papp in the B-A direction by the Papp in the A-B direction.

In series [3] the test system is HEK293FT cells stably expressing FLAG-vector or FLAG-MAGE-A11. The series is described as follows: Cell viability alamarBlue assay, HEK293FT cells. Type of series: cell-based. The note with it: MAGE-A11 expressing HEK293FT cells versus vector control, 24 hours, listed as SJ521054. As to the method: Cell viability Assay. To assess cell viability after SJ521054 treatment, 1×10^4 cells/ml were treated with SJ521054 (0-40 μM) and incubated for 24 hours prior to changing the media and adding alamarBlue (Thermo Fisher Scientific) and incubating for 4 hours at 37° C. Plates were read by measuring the fluorescence with excitation wavelength at 540 nm and emission wavelength at 590 nm on an Enspire plate reader.
(The colour change of resazurin is a common sign of viable cells or microbes.)

For series [4], the system named is PCF11 protein levels in HEK293FT cells. The series is described as follows: PCF11 degradation by MAGE-A11, immunoblotting in HEK293FT cells. Type of series: cell-based. The note with it: 24 hours. As to the method:
Cell culture and stable cell lines. HEK293FT, HeLa and DAOY cells were grown in DMEM (Gibco) supplemented with 10% (v/v) FBS (Hyclone), 2 mM L-glutamine, 100 units/ml penicillin, 100 units/ml streptomycin, and […] amphotericin B (Invitrogen). HEK293FT and DAOY cells were transfected with either HA-FLAG-vector, FLAG-MAGE-A11 wild-type or SBC mutants using Effectene (QIAGEN) according to the manufacturer's protocol in 6 cm^2 plates. After 48 hours, cells were selected with 1 μg/ml puromycin (Sigma) over 2 weeks.
as §1

As to `FC(F)(F)c1ccc2c(NCCCNCc3ccc4[nH]ccc4c3)ccnc2c1` [SJ000521054-02, N^1-((1H-Indol-5-yl)methyl)-N^3-(7-(trifluoromethyl)quinolin-4-yl)propane-1,3-diamine], in series [1], the “MAGE-A11 binding to PCF11 in cell lysate (co-IP)” value is on record as “inhibited MAGE-A11 binding to PCF11 in cell lysates”. In addition, the Papp at 2 h, 10 μmol/l in series [2] (Caco-2, pH 7.4, apical to basolateral, read-out: Caco-2 permeability, A/B) came to 11.5 ×10⁻⁶ cm/s; in series [2] (Caco-2, pH 7.4, basolateral to apical, read-out: Caco-2 permeability, B/A) it was 14.2 ×10⁻⁶ cm/s. Besides, the cell viability result in series [3] is listed as “decreased the viability; also recorded: reduces viability of MAGE-A11 expressing HEK293FT cells”. For the same compound, the “PCF11 protein levels / PCF11 degradation by MAGE-A11” value in series [4] (MAGE-A11 expressing HEK293FT cells, listed as SJ521054) is listed as “blocks PCF11 degradation by MAGE-A11; also recorded: stabilized PCF11 protein levels”. Further, the PCF11 protein levels result in series [4] (vector control HEK293FT cells) is listed as “no effect”.
